Source: US20240415918A1, “Polypeptide and its use as a CCK receptor agonist/antagonist” (Centre for Regenerative Medicine & Health, Hong Kong …, priority 2021, published 2024)
Where a SMILES comes first, the peptide text is derived from it. [ ]: non-standard residue; d: D form. The star is where a group is joined. NMeW = CN[C@@H](Cc1c[nH]c2ccccc12)C(=O)O; Phe(3-Br) = N[C@@H](Cc1cccc(Br)c1)C(=O)O; dNMeW = CN[C@H](Cc1c[nH]c2ccccc12)C(=O)O; Fmoc = O=C(OCC1c2ccccc2-c2ccccc21)*; Aad = N[C@@H](CCCC(=O)O)C(=O)O; Nle = CCCC[C@H](N)C(=O)O

Molecular target: T1, CCK-B receptors (CHO-CCK) (Homo sapiens, UniProt P32239)
T1 construct: expressed in transfected cells; host or cells: CHO (CHO-CCK model cells)
T1 sequence (P32239 1-447): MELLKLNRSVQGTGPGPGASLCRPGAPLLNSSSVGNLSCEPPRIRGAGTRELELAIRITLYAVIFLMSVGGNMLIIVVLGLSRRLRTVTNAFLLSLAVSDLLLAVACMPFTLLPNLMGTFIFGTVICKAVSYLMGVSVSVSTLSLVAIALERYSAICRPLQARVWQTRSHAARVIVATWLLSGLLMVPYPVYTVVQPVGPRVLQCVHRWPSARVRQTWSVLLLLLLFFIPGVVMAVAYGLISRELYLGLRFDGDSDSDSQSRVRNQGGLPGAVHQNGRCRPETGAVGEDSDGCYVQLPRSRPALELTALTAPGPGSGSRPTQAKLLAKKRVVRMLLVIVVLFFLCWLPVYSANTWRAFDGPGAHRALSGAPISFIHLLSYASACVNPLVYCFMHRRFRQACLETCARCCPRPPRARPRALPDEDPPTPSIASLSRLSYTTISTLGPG
Assay: Calcium flux (Fluo-8) agonist test on CHO-CCK model cells
Format: cell-based
Conditions: for Agonistic Activity (%) at 10 μM: compound at 10 μM, percentage of signal of 20 nM CCK8 alone; for EC50 / % Act-Ave @ 1 nM / % Act-Ave @ 50 nM: CHO-CCK cells; for EC50: Fluo-8 calcium flux, 100% control = 20 nM CCK8; for % Act-Ave @ 1 nM: compound at 1 nM; for % Act-Ave @ 50 nM: compound at 50 nM
Method: • To detect changes in intracellular calcium ion concentration after the compound acts on model cells containing CCK-B receptors (CHO-CCK).
• 1. The compound was formulated to a 10 mM mother liquor with DMSO, and then diluted into a series of 9 concentrations with a 3-fold gradient to form a 1000× stock solution.
2.1 Agonist • The compound stock solution was subjected to 200-fold dilution with HHBS buffer to form a 5× working solution.
• 1. Plate CHO-CCK cells in a 96-well plate with media containing 1% FBS, 30,000 cells/well/100 μL, and incubate overnight at 37° C. • 2. Prepare 1×Fluo-8 analysis buffer: mix 9 mL of HHBS, 1 mL of 10× Pluronic F127 Plus and 20 μL of Fluo-8 thoroughly for later use. • 3. Add Fluo-8 dye working solution to the cell plate, 100 μL/well. First incubate in a 37° C. incubator for 30 min, and then take it out and incubate at room temperature in the dark for 30 min. • 4. In the process of incubating cells, the compounds to be detected were prepared with HHBS. • 5.
The agonism/antagonism EC50 of the compound can be obtained by plotting the fitting curve with the agonism/antagonism percentage as Y-axis and the concentration of the compound as X-axis.

Agonistic Activity (%) at 10 μM	SMILES	also measured
10.66%	COC(=O)C[C@H](NC(=O)[C@H](CCS(C)(=O)=O)NC(=O)[C@H](N)Cc1c[nH]c2ccccc12)C(=O)N[C@@H](Cc1cc(Cl)cc(Cl)c1)C(N)=O [HT-140, D-Trp-Met(O2)-Asp(Ome)-Phe(3,5-DiCl)-NH2]	–
5.60%	COC(=O)C[C@H](NC(=O)[C@H](CCS(C)(=O)=O)NC(=O)[C@H](N)Cc1c[nH]c2ccccc12)C(=O)N[C@@H](Cc1cc(F)cc(F)c1)C(N)=O [HT-141, D-Trp-Met(O2)-Asp(Ome)-Phe(3,5-DiF)-NH2]	–
0.79%	COC(=O)C[C@H](NC(=O)[C@H](CCS(C)(=O)=O)NC(=O)[C@H](N)Cc1c[nH]c2ccccc12)C(=O)N[C@@H](Cc1cc(F)c(F)c(F)c1)C(N)=O [HT-142, D-Trp-Met(O2)-Asp(Ome)-Phe(3,4,5-TriF)-NH2]	–

Further lines, the compound ahead of its results:

SMILES	Agonistic Activity (%) at 10 μM	also measured
COC(=O)C[C@H](NC(=O)[C@H](CCS(C)(=O)=O)NC(=O)[C@H](N)Cc1c[nH]c2ccccc12)C(=O)N[C@@H](Cc1cccc(F)c1)C(N)=O [HT-129, D-Trp-Met(O2)-Asp(Ome)-Phe(3-F)-NH2]	−4.28%	–
COC(=O)C[C@H](NC(=O)[C@H](CCS(C)(=O)=O)NC(=O)[C@H](N)Cc1c[nH]c2ccccc12)C(=O)N[C@@H](Cc1cccc(C)c1)C(N)=O [HT-130, D-Trp-Met(O2)-Asp(Ome)-Phe(3-I)-NH2]	0.86%	–
COC(=O)C[C@H](NC(=O)[C@H](CCS(C)(=O)=O)NC(=O)[C@H](N)Cc1c[nH]c2ccccc12)C(=O)N[C@@H](Cc1cccc(Br)c1)C(N)=O [HT-131, D-Trp-Met(O2)-Asp(Ome)-Phe(3-Br)-NH2]	5.87%	–
COC(=O)C[C@H](NC(=O)[C@H](CCS(C)(=O)=O)NC(=O)[C@H](N)Cc1c[nH]c2ccccc12)C(=O)N[C@@H](Cc1ccc(C)cc1)C(N)=O [HT-132, D-Trp-Met(O2)-Asp(Ome)-Phe(4-Me)-NH2]	−14.42%	–
COC(=O)C[C@H](NC(=O)[C@H](CCS(C)(=O)=O)NC(=O)[C@H](N)Cc1c[nH]c2ccccc12)C(=O)N[C@@H](Cc1ccc(N=[N+]=[N-])cc1)C(N)=O [HT-133, D-Trp-Met(O2)-Asp(Ome)-Phe(4-N3)-NH2]	8.66%	–
COC(=O)C[C@H](NC(=O)[C@H](CCS(C)(=O)=O)NC(=O)[C@H](N)Cc1c[nH]c2ccccc12)C(=O)N[C@@H](Cc1ccc(C#N)cc1)C(N)=O [HT-134, D-Trp-Met(O2)-Asp(Ome)-Phe(4-CN)-NH2]	11.25%	–
COC(=O)C[C@H](NC(=O)[C@H](CCS(C)(=O)=O)NC(=O)[C@H](N)Cc1c[nH]c2ccccc12)C(=O)N[C@@H](Cc1ccc([N+](=O)[O-])cc1)C(N)=O [HT-135, D-Trp-Met(O2)-Asp(Ome)-Phe(4-NO2)-NH2]	11.52%	–
COC(=O)C[C@H](NC(=O)[C@H](CCS(C)(=O)=O)NC(=O)[C@H](N)Cc1c[nH]c2ccccc12)C(=O)N[C@@H](Cc1ccc(Br)cc1)C(N)=O [HT-136, D-Trp-Met(O2)-Asp(Ome)-Phe(4-Br)-NH2]	2.69%	–
COC(=O)C[C@H](NC(=O)[C@H](CCS(C)(=O)=O)NC(=O)[C@H](N)Cc1c[nH]c2ccccc12)C(=O)N[C@@H](Cc1ccc(Cl)cc1)C(N)=O [HT-137, D-Trp-Met(O2)-Asp(Ome)-Phe(4-Cl)-NH2]	2.10%	–
[2H]c1ccc(C[C@H](NC(=O)[C@H](CC(=O)OC)NC(=O)[C@H](CCS(C)(=O)=O)NC(=O)[C@H](N)Cc2c[nH]c3ccccc23)C(N)=O)cc1 [HT-138, D-Trp-Met(O2)-Asp(Ome)-Phe(4-F)-NH2]	−3.84%	–
COC(=O)C[C@H](NC(=O)[C@H](CCS(C)(=O)=O)NC(=O)[C@H](N)Cc1c[nH]c2ccccc12)C(=O)N[C@@H](Cc1ccc(I)cc1)C(N)=O [HT-139, D-Trp-Met(O2)-Asp(Ome)-Phe(4-I)-NH2]	13.02%	–
C[S+]([O-])CC[C@H](NC(=O)[C@H](N)Cc1c[nH]c2ccccc12)C(=O)N[C@@H](CC(=O)OCCNc1cccc2c(O)cccc12)C(=O)N[C@@H](Cc1ccccc1[N+](=O)[O-])C(N)=O (stereo partly drawn) [HT-143, D-Trp-Met(O)-Asp(EDANS)-Phe(2-NO2)-NH2]	4.33%	–
C[S+]([O-])CC[C@H](NC(=O)[C@H](N)Cc1c[nH]c2ccccc12)C(=O)N[C@@H](CC(=O)OCCNc1cccc2c(O)cccc12)C(=O)N[C@@H](Cc1cccc(Cl)c1)C(N)=O (stereo partly drawn) [HT-145, D-Trp-Met(O)t-Asp(EDANS)-Phe(3-Cl)-NH2]	−5.52%	–
C[S+]([O-])CC[C@H](NC(=O)[C@H](N)Cc1c[nH]c2ccccc12)C(=O)N[C@@H](CC(=O)OCCNc1cccc2c(O)cccc12)C(=O)N[C@@H](Cc1ccc(N=[N+]=[N-])cc1)C(N)=O (stereo partly drawn) [HT-150, D-Trp-Met(O)-Asp(EDANS)-Phe(4-N3)-NH2]	0.81%	–
C[S+]([O-])CC[C@H](NC(=O)[C@H](N)Cc1c[nH]c2ccccc12)C(=O)N[C@@H](CC(=O)OCCNc1cccc2c(O)cccc12)C(=O)N[C@@H](Cc1ccc(F)cc1)C(N)=O (stereo partly drawn) [HT-155, D-Trp-Met(O)-Asp(EDANS)-Phe(4-F)-NH2]	0.50%	–
C[S+]([O-])CC[C@H](NC(=O)[C@H](N)Cc1c[nH]c2ccccc12)C(=O)N[C@@H](CC(=O)OCCNc1cccc2c(O)cccc12)C(=O)N[C@@H](Cc1cc(F)c(F)c(F)c1)C(N)=O (stereo partly drawn) [HT-159, D-Trp-Met(O)-Asp(EDANS)-Phe(3,4,5-TriF)-NH2]	4.93%	–
CS(=O)(=O)CC[C@H](NC(=O)[C@H](N)Cc1c[nH]c2ccccc12)C(=O)N[C@@H](CC(=O)OCCNc1cccc2c(O)cccc12)C(=O)N[C@@H](Cc1cccc(F)c1)C(N)=O [HT-163, D-Trp-Met(O2)-Asp(EDANS)-Phe(3-F)-NH2]	2.64%	–
Cc1ccc(C[C@H](NC(=O)[C@H](CC(=O)OCCNc2cccc3c(O)cccc23)NC(=O)[C@H](CCS(C)(=O)=O)NC(=O)[C@H](N)Cc2c[nH]c3ccccc23)C(N)=O)cc1 [HT-166, D-Trp-Met(O2)-Asp(EDANS)-Phe(4-Me)-NH2]	3.59%	–
CCCC[C@H](NC(=O)[C@H](Cc1c[nH]c2ccccc12)N(C)C(=O)OCC1c2ccccc2-c2ccccc21)C(=O)N[C@@H](CC(=O)O)C(=O)N[C@@H](Cc1cccc(Br)c1)C(N)=O [HT-199, Fmoc-(N-Me-Trp)-Nle-Asp-Phe(3-Br)-NH2] (Fmoc-[NMeW][Nle]D[Phe(3-Br)]-NH2)	–	EC50: 1.47 nM
CCCC[C@H](NC(=O)[C@H](Cc1c[nH]c2ccccc12)N(C)C(=O)OCC1c2ccccc2-c2ccccc21)C(=O)N[C@@H](CC(=O)O)C(=O)N[C@@H](Cc1cccc(Br)c1)C(N)=O [HT-268, Fmoc-(N-Me-Trp)-Nle-Asp-Phe(3-Br)-NH2] (Fmoc-[NMeW][Nle]D[Phe(3-Br)]-NH2)	–	EC50: 1.3 nM
CCCC[C@H](NC(=O)[C@H](Cc1c[nH]c2ccccc12)N(C)C(C)=O)C(=O)N[C@@H](CC(=O)O)C(=O)N[C@@H](Cc1cccc(Br)c1)C(N)=O [HT-269, Ac-(N-Me-Trp)-Nle-Asp-Phe(3-Br)-NH2] (Ac-[NMeW][Nle]D[Phe(3-Br)]-NH2)	–	% Act-Ave @ 1 nM: 0.05%; % Act-Ave @ 50 nM: 33.52%
CCCC[C@H](NC(=O)[C@@H](Cc1c[nH]c2ccccc12)N(C)C(C)=O)C(=O)N[C@@H](CCCC(=O)O)C(=O)N[C@@H](Cc1cccc(Br)c1)C(N)=O [HT-270, Ac-D-Trp-Nle-Aa-Phe(3-Br)-NH2] (Ac-[dNMeW][Nle][Aad][Phe(3-Br)]-NH2)	–	% Act-Ave @ 1 nM: −0.03%; % Act-Ave @ 50 nM: 80.85%
CCCC[C@H](NC(=O)[C@H](Cc1c[nH]c2ccccc12)N(C)C(C)=O)C(=O)N[C@@H](CCCC(=O)O)C(=O)N[C@@H](Cc1cccc(Br)c1)C(N)=O [HT-271, Ac-Trp-Nle-Aa-Phe(3-Br)-NH2] (Ac-[NMeW][Nle][Aad][Phe(3-Br)]-NH2)	–	% Act-Ave @ 1 nM: 40.66%; % Act-Ave @ 50 nM: 104.56%
CCCC[C@H](NC(=O)[C@H](Cc1c[nH]c2ccccc12)N(C)C(C)=O)C(=O)N[C@@H](CCCC(=O)O)C(=O)N[C@@H](Cc1cccc(Br)c1)C(N)=O [HT-272, Ac-(N-Me-Trp)-Nle-Aa-Phe(3-Br)-NH2] (Ac-[NMeW][Nle][Aad][Phe(3-Br)]-NH2)	–	% Act-Ave @ 1 nM: −0.33%; % Act-Ave @ 50 nM: 86.09%
CCCC[C@H](NC(=O)[C@H](Cc1c[nH]c2ccccc12)N(C)C(C)=O)C(=O)N[C@@H](CC(=O)O)C(=O)N[C@@H](Cc1cccc(Br)c1)C(N)=O [HT-273, Ac-(N-Me-Trp)-Nle-Asp-Phe(3-Br)-NH2] (Ac-[NMeW][Nle]D[Phe(3-Br)]-NH2)	–	% Act-Ave @ 1 nM: 52.14%; % Act-Ave @ 50 nM: 96.54%
